Assay [1] deals with T1, glutathione-S-transferase (GST) tagged LXRalpha LBD (ligand binding domain) (Homo sapiens, UniProt Q13133).
T1 construct: purchased Invitrogen pv4655
T1 sequence (Q13133 209-447 limits assumed): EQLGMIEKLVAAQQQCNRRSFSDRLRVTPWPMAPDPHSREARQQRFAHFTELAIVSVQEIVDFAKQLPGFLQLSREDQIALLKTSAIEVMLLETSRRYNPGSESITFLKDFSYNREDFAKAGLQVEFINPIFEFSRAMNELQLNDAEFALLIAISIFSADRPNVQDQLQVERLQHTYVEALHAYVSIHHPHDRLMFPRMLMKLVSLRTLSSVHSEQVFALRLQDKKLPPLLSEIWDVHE
Description: LanthaScreen TR-FRET Liver X Receptor Coactivator Assay, LXR alpha. The assay is classed as biochemical. To be noted: for Emax: read-out: LXR alpha actiivty at max dose (%); for EC50 / LXR alpha IP (nM): potency (Inflection Point) of compound-induced co-activator recruitment, TR-FRET. The method, then:
(§1) While running the LanthaScreen™ TR-FRET Liver X Receptor Coactivator Assay, LXR alpha-LBD or LXR beta-LBD was added to ligand test compounds followed by addition of a mixture of a fluorescein-labelled coactivator peptide and terbium-conjugated anti-GST antibody. After an incubation period at room temperature, TR-FRET (time-resolved fluorescence resonance energy transfer) was measured using a filter-based instrument capable of TR-FRET, e.g. PerkinElmer Envision.

For assay [2], the target named is T2, glutathione-S-transferase (GST) tagged LXRbeta LBD (ligand binding domain) (Homo sapiens, UniProt P55055).
T2 construct: purchased Invitrogen pv4658.pps
T2 sequence (P55055 222-460 limits assumed): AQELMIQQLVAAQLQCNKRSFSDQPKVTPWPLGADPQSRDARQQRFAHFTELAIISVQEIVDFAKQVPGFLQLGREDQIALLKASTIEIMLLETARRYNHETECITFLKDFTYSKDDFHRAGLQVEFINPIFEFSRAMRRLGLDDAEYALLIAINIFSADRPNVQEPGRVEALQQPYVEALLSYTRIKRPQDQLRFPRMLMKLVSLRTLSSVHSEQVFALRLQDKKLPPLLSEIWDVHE
Description: LanthaScreen TR-FRET Liver X Receptor Coactivator Assay, LXR beta. The assay is classed as biochemical. To be noted: for Emax: read-out: LXR beta actiivty at max dose (%); for EC50: potency (Inflection Point) of compound-induced co-activator recruitment, TR-FRET. Here is the method: as §1
A general note: In TR-FRET formats the signal depends on donor and acceptor labels being close together.

Setting [3] is: efficacy (Emax) in relation to reference dual agonist T0901317.

Where two headings read alike, the source gives them in different places.

For `CN(C)C(=O)c1ccc(CCCC2CC3(CCN(C(=O)C(C)(C)c4ccccc4)CC3)C2)cc1Cl` [Example 16-3, 2-chloro-N,N-dimethyl-4-(3-(7-(2-methyl-2-phenylpropanoyl)-7-azaspiro[3.5]nonan-2-yl)propyl)benzamide], the Emax in assay [1] (setting [3]) stood at 50%; in assay [2] (setting [3]), 108%. The EC50 in assay [1] (read-out: LXR alpha IP) stood at 423 nM; in assay [2] (read-out: LXR beta IP), 56 nM.
Consider `CNC(=O)c1ccc(NCCCCC2CCN(C(=O)C(O)(c3cccc(OC)c3)C(F)(F)F)CC2)cc1Cl` (single isomer, unassigned) [Example 1-1, (R or S)-2-chloro-N-methyl-4-(4-(1-(3,3,3-trifluoro-2-hydroxy-2-(3-methoxyphenyl)propanoyl)piperidin-4-yl)butylamino)benzamide], for which the EC50 in assay [1] (LXR alpha IP (nM)) amounted to 577 nM; in assay [2] (read-out: LXR beta IP) it was 8 nM. The Emax in assay [1] turned out to be 17%; in assay [2] (setting [3]), 68%.
With `CC(CCCC1CCN(C(=O)[C@](O)(c2ccccc2)C(F)(F)F)CC1)Nc1ccc(C(=O)N(C)C)c(Cl)c1` (single isomer, unassigned) [Example 4-3, 2-chloro-N,N-dimethyl-4-((S or R)-5-(1-((R or S)-3,3,3-trifluoro-2-hydroxy-2-phenylpropanoyl)piperidin-4-yl)pentan-2-ylamino)benzamide], in assay [1] (setting [3]), the “LXR alpha actiivty at max dose (%)” value amounted to 35%. Further, the values for the EC50 in assay [1] (read-out: LXR alpha IP) and in assay [2] (read-out: LXR beta IP) were 653 nM and 15 nM, respectively. Moreover, the Emax in assay [2] (setting [3]) amounted to 79%.
As for `CNC(=O)c1ccc(NCCC[C@@H]2CC23CCN(C(=O)[C@@](O)(C(C)C)C(F)(F)F)CC3)cc1Cl` (single isomer, unassigned) [Example 6-8, 2-chloro-4-(3-((R or S)-6-((S or R)-2-hydroxy-3-methyl-2-(trifluoromethyl)butanoyl)-6-azaspiro[2.5]octan-1-yl)propylamino)-N-methylbenzamide], the Emax stood at 65% in assay [1] (setting [3]) and 91% in assay [2] (setting [3]). For the same compound, the EC50 was 829 nM in assay [1] (read-out: LXR alpha IP) and 9 nM in assay [2] (read-out: LXR beta IP).
`CN(C)C(=O)c1ccc(N(C)CCCC2CCN(C(=O)C(O)(c3ccccc3)C(F)(F)F)CC2)cc1Cl` (single isomer, unassigned) [Example 3-1, (S or R)-2-chloro-N,N-dimethyl-4-(methyl(3-(1-(3,3,3-trifluoro-2-hydroxy-2-phenylpropanoyl)piperidin-4-yl)propyl)amino)benzamide]: the Emax in assay [1] (setting [3]) stood at 16%; in assay [2], 109%. Besides, the EC50 in assay [1] (read-out: LXR alpha IP) turned out to be 1150 nM; in assay [2] (LXR beta IP (nM)), 47 nM.
Turning to `CN(C)C(=O)c1ccc(NCCC2CCN(C(=O)OCc3ccccc3)CC2)cc1Cl` [Example 1-13, benzyl 4-(2-(3-chloro-4-(dimethylcarbamoyl)phenylamino)ethyl)piperidine-1-carboxylate], the Emax in assay [1] (setting [3]) came out at 12%; in assay [2] (setting [3]) it was 21%. Moreover, in assay [1], the “LXR alpha IP (nM)” value is on record as “No IP”. The EC50 in assay [2] (read-out: LXR beta IP) came out at 104 nM.
As to `COc1cccc(C(O)(C(=O)N2CCC3(CCC(Nc4ccc(C(=O)N(C)C)c(Cl)c4)CC3)CC2)C(F)(F)F)c1` (single isomer, unassigned) [Example 10-1, 2-chloro-N,N-dimethyl-4-(3-((R or S)-3,3,3-trifluoro-2-hydroxy-2-(3-methoxyphenyl)propanoyl)-3-azaspiro[5.5]undecan-9-ylamino)benzamide], the Emax in assay [1] (setting [3]) was 12%; in assay [2] (setting [3]) it was 54%. For the same compound, in assay [1], the “LXR alpha IP (nM)” value is recorded as “No IP”. For the same compound, the EC50 in assay [2] (read-out: LXR beta IP) came out at 73 nM.
For `CN(C)C(=O)c1ccc(CCCC2CCN(C(=O)C(O)(c3ccccc3)C(F)(F)F)CC2)cc1Cl` (single isomer, unassigned) [Example 15-1, (R or S)-2-chloro-N,N-dimethyl-4-(3-(1-(3,3,3-trifluoro-2-hydroxy-2-phenylpropanoyl)piperidin-4-yl)propyl)benzamide], the values for the EC50 in assay [1] (LXR alpha IP (nM)) and in assay [2] (LXR beta IP (nM)) were 1310 nM and 46 nM, respectively. The Emax in assay [1] was 19%; in assay [2], 41%.
